# In the supplement of paper PMC10307832:
# Tests used:
# Assay in all cases: relative viability (nuclei count vs DMSO), 5 days (fraction); higher = more cells survive
# [1] = test system: NCI-H1755
# How it was run: (§1)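 Relative viability was taken as the ratio of nuclei in treated wells to nuclei in vehicle wells. Lung cancer cell lines in 1536-well plates received compounds by pin tool one day after seeding, either one drug alone or a fixed anchor-drug dose plus five library-drug doses (not always all listed) in √10 steps. Nuclei were counted on 4× images after 5 days of treatment, and values are medians of duplicate plates.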
# [2] = test system: NCI-H520
# How it was run: as §1
# [3] = test system: NCI-H522
# How it was run: as §1
# [4] = test system: LCLC-103H
# How it was run: as §1
# [5] = test system: NCI-H441
# How it was run: as §1
# [6] = test system: NCI-H2347
# How it was run: as §1
# [7] = test system: SK-MES-1
# How it was run: as §1
# [8] = test system: NCI-H727
# How it was run: as §1
# [9] = test system: NCI-H2170
# How it was run: as §1
# [10] = test system: RERF-LC-KJ
# How it was run: as §1
# [11] = test system: NCI-H1355
# How it was run: as §1
# [12] = test system: NCI-H460
# How it was run: as §1
# [13] = test system: SW 900
# How it was run: as §1
# [14] = test system: NCI-H322M
# How it was run: as §1
# [15] = test system: NCI-H650
# How it was run: as §1
# [16] = test system: NCI-H1651
# How it was run: as §1
# [17] = test system: NCI-H1792
# How it was run: as §1
# [18] = test system: NCI-H1915
# How it was run: as §1
# [19] = test system: NCI-H661
# How it was run: as §1
# [20] = test system: PC-14
# How it was run: as §1
# [21] = test system: LXF-289
# How it was run: as §1
# [22] = test system: NCI-H3122
# How it was run: as §1
# [23] = test system: NCI-H596
# How it was run: as §1
smiles,measurement,setting,value
C[C@@H]1CN(CC(=O)Nc2ccc3c(c2)Cc2cccc(-c4cc(=O)cc(N5CCOCC5)o4)c2S3)C[C@H](C)O1 + Nc1ncn([C@H]2C[C@H](O)[C@@H](CO)O2)c(=O)n1 [Decitabine] (partner 2 µM),relative viability,[1]; first compound 0.04 µM,0.708
same,relative viability,[1]; first compound 0.1265 µM,0.737
same,relative viability,[1]; first compound 0.4 µM,0.77
same,relative viability,[1]; first compound 4 µM,0.796
same,relative viability,[2]; first compound 0.04 µM,0.613
same,relative viability,[2]; first compound 0.1265 µM,0.484
same,relative viability,[2]; first compound 0.4 µM,0.449
same,relative viability,[2]; first compound 4 µM,0.488
same,relative viability,[3]; first compound 0.04 µM,0.663
same,relative viability,[3]; first compound 0.1265 µM,0.689
same,relative viability,[3]; first compound 0.4 µM,0.641
same,relative viability,[3]; first compound 4 µM,0.724
same,relative viability,[4]; first compound 0.04 µM,0.693
same,relative viability,[4]; first compound 0.1265 µM,0.695
same,relative viability,[4]; first compound 0.4 µM,0.697
same,relative viability,[4]; first compound 4 µM,0.737
same,relative viability,[5]; first compound 0.04 µM,0.249
same,relative viability,[5]; first compound 0.1265 µM,0.222
same,relative viability,[5]; first compound 0.4 µM,0.29
same,relative viability,[5]; first compound 4 µM,0.328
same,relative viability,[6]; first compound 0.04 µM,0.581
same,relative viability,[6]; first compound 0.1265 µM,0.624
same,relative viability,[6]; first compound 0.4 µM,0.693
same,relative viability,[6]; first compound 4 µM,0.637
same,relative viability,[7]; first compound 0.04 µM,0.356
same,relative viability,[7]; first compound 0.1265 µM,0.368
same,relative viability,[7]; first compound 0.4 µM,0.433
same,relative viability,[7]; first compound 4 µM,0.446
same,relative viability,[8]; first compound 0.04 µM,1.14
same,relative viability,[8]; first compound 0.1265 µM,1
same,relative viability,[8]; first compound 0.4 µM,0.99
same,relative viability,[8]; first compound 4 µM,0.8
same,relative viability,[9]; first compound 0.04 µM,0.492
same,relative viability,[9]; first compound 0.1265 µM,0.459
same,relative viability,[9]; first compound 0.4 µM,0.508
same,relative viability,[9]; first compound 4 µM,0.464
same,relative viability,[10]; first compound 0.04 µM,0.711
same,relative viability,[10]; first compound 0.1265 µM,0.61
same,relative viability,[10]; first compound 0.4 µM,0.678
same,relative viability,[10]; first compound 4 µM,0.556
same,relative viability,[11]; first compound 0.04 µM,0.389
same,relative viability,[11]; first compound 0.1265 µM,0.338
same,relative viability,[11]; first compound 0.4 µM,0.363
same,relative viability,[11]; first compound 4 µM,0.375
same,relative viability,[12]; first compound 0.04 µM,0.401
same,relative viability,[12]; first compound 0.1265 µM,0.466
same,relative viability,[12]; first compound 0.4 µM,0.379
same,relative viability,[12]; first compound 4 µM,0.335
same,relative viability,[13]; first compound 0.04 µM,0.453
same,relative viability,[13]; first compound 0.1265 µM,0.427
same,relative viability,[13]; first compound 0.4 µM,0.515
same,relative viability,[13]; first compound 4 µM,0.43
same,relative viability,[14]; first compound 0.04 µM,0.526
same,relative viability,[14]; first compound 0.1265 µM,0.723
same,relative viability,[14]; first compound 0.4 µM,0.657
same,relative viability,[14]; first compound 4 µM,0.638
same,relative viability,[15]; first compound 0.04 µM,0.346
same,relative viability,[15]; first compound 0.1265 µM,0.336
same,relative viability,[15]; first compound 0.4 µM,0.377
same,relative viability,[15]; first compound 4 µM,0.341
same,relative viability,[16]; first compound 0.04 µM,0.628
same,relative viability,[16]; first compound 0.1265 µM,0.628
same,relative viability,[16]; first compound 0.4 µM,0.585
same,relative viability,[16]; first compound 4 µM,0.599
same,relative viability,[17]; first compound 0.04 µM,0.627
same,relative viability,[17]; first compound 0.1265 µM,0.51
same,relative viability,[17]; first compound 0.4 µM,0.542
same,relative viability,[17]; first compound 4 µM,0.441
same,relative viability,[18]; first compound 0.04 µM,0.259
same,relative viability,[18]; first compound 0.1265 µM,0.279
same,relative viability,[18]; first compound 0.4 µM,0.283
same,relative viability,[18]; first compound 4 µM,0.29
same,relative viability,[19]; first compound 0.04 µM,0.496
same,relative viability,[19]; first compound 0.1265 µM,0.534
same,relative viability,[19]; first compound 0.4 µM,0.623
same,relative viability,[19]; first compound 4 µM,0.65
same,relative viability,[20]; first compound 0.04 µM,0.235
same,relative viability,[20]; first compound 0.1265 µM,0.253
same,relative viability,[20]; first compound 0.4 µM,0.192
same,relative viability,[20]; first compound 4 µM,0.167
same,relative viability,[21]; first compound 0.04 µM,0.374
same,relative viability,[21]; first compound 0.1265 µM,0.354
same,relative viability,[21]; first compound 0.4 µM,0.419
same,relative viability,[21]; first compound 4 µM,0.419
same,relative viability,[22]; first compound 0.04 µM,0.423
same,relative viability,[22]; first compound 0.1265 µM,0.396
same,relative viability,[22]; first compound 0.4 µM,0.42
same,relative viability,[22]; first compound 4 µM,0.436
same,relative viability,[23]; first compound 0.04 µM,1.01
same,relative viability,[23]; first compound 0.1265 µM,1.11
same,relative viability,[23]; first compound 0.4 µM,1.11
same,relative viability,[23]; first compound 4 µM,0.798
